Patent US9072741B2, “Methods of treating liver fibrosis and pre-cirrhosis with epidermal growth factor receptor inhibitors” (The General Hospital Corporation, priority 2009, dated 2015)

What was measured:
[1] = tested on: DEN-induced hepatotoxicity and liver failure; test: Liver function tests on serum (AST, TBIL, Glu) of DEN-treated rats; assay type: in vivo, male Wistar rats; conditions: n=4
Experimental: FIGS. 4A, 4B, and 4C are a series of three bar graphs showing the levels of (A) aspartate transaminase (AST), (B) total bilirubin (TBIL), and (C) total glucose (Glu) in serum from rats treated with PBS for 18 weeks or DEN (50 mg/kg) for 18 weeks plus either vehicle, 0.5 mg/kg erlotinib (Erl 0.5), or 2 mg/kg erlotinib (Erl 2) during weeks 12-18. *, significant.
FIGS. 7A, 7B, and 7C are a series of three bar graphs showing levels of (A) aspartate transaminase (AST), (B) total bilirubin (TBIL), and (C) total glucose (Glu) in serum from rats treated with DEN (50 mg/kg) for 18 weeks plus either vehicle or 18 mg/kg lapatinib during weeks 12-18. *, significant.
During fibrosis, hepatic stellate cells are activated and deposit fibrous collagen into the space of Disse, the area between the hepatocytes and the sinusoid containing blood plasma. The deposition of collagen inhibits the normal exchange of nutrients and wastes between the hepatocytes and plasma resulting in hepatotoxicity and liver failure. The degree of liver toxicity and failure can be assessed by measuring several proteins or a carbohydrate present in the serum. For example, aspartate aminotransferase (AST) is an enzyme present in hepatocytes that is released into the serum when hepatocytes die. Bilirubin (TBIL) is the breakdown product of heme and its levels become elevated in the serum if hepatocytes cannot properly metabolize it. Finally, liver failure will result in lower levels of glucose (Glu) production causing serum Glu levels to drop.
The levels of AST, TBIL, and Glu were assayed in serum from rats treated with erlotinib. Male Wistar rats (n=4) were treated with PBS for 18 weeks or a weekly intraperitoneal injection of 50 mg/kg DEN for 18 weeks plus either vehicle, 0.5 mg/kg erlotinib (Erl 0.5), or 2 mg/kg erlotinib (Erl 2) between weeks 12 and 18. Whole blood was isolated from the rats and allowed to clot for 2 hours at room temperature. The blood was then spun at 2,000 rpm for 10 minutes and serum (top layer) was isolated. Liver function tests were performed on serum from the rats. In the current model, intraperitoneal administration of DEN causes both hepatotoxicity and liver failure to increase over time as assessed by these three markers. However, compared to vehicle controls, erlotinib reduced the degree of hepatotoxicity and liver failure in a dose-dependent fashion. Specifically, erlotinib decreased serum levels of AST and TBIL and increased serum levels of Glu (FIGS. 4A-C).
Levels of AST, TBIL, and Glu were assayed in serum from rats treated with lapatinib. Male Wistar rats (n=4) were treated with PBS for 18 weeks or a weekly intraperitoneal injection of 50 mg/kg DEN for 18 weeks plus either vehicle or 18 mg/kg lapatinib between weeks 12 and 18. Whole blood was isolated from the rats and allowed to clot for 2 hours at room temperature. The blood was then spun at 2,000 rpm for 10 minutes and serum (top layer) was isolated. Liver function tests were performed on serum from the rats. In the current model, intraperitoneal administration of DEN causes both hepatotoxicity and liver failure to increase over time as assessed by these three markers. However, compared to vehicle controls, lapatinib reduced the degree of hepatotoxicity and liver failure. Specifically, lapatinib decreased serum levels of AST and TBIL and increased serum levels of Glu (FIGS. 7A-C).

[2] = tested on: DEN-induced cirrhosis and HCC; test: DEN-induced rat model of cirrhosis and HCC: tumor formation (tumor nodules) and gross liver appearance; assay type: in vivo, male Wistar rats; conditions: for decrease of tumor formation: vs vehicle
Experimental: FIG. 1A is a bar graph depicting the number of tumor nodules in male Wistar rats receiving weekly intraperitoneal injections of 50 mg/kg diethylnitrosamine (DEN) for 18 weeks and vehicle only (n=16), 0.5 mg/kg erlotinib (Erl 0.5; n=8), or 2 mg/kg erlotinib (Erl 2; n=8) during weeks 12-18.
FIG. 5A is a bar graph depicting the number of tumor nodules in male Wistar rats receiving weekly intraperitoneal injections of 50 mg/kg DEN for 18 weeks and vehicle only (n=8) or 18 mg/kg lapatinib (n=8) during weeks 12-18. *, significant.
Given the lack of successful treatment options for HCC, chemoprevention in high-risk patients has been proposed as an alternative strategy (Llovet et al., Lancet 362:1907-17, 2003). Even though EGFR inhibition is not effective for chemotherapy, the data presented herein indicate that it is likely to be a good chemoprevention strategy. The diethylnitrosamine (DEN)-induced rat model of sequential cirrhosis and HCC has emerged as a promising tool for not only studying the course of chronic liver disease but also for testing putative chemopreventive agents as it better resembles disease progression in humans (Lee et al., Korean J Hepatol 13:70-80, 2007; Schiffer et al., Hepatology 41:307-14, 2005). In this model, DEN induces liver cirrhosis after 12 weeks and HCC at approximately 18 weeks allowing ample opportunity for preventative intervention.
Erlotinib is a drug used to treat non-small cell lung cancer and pancreatic cancer. Erlotinib specifically targets the EGFR, which is highly expressed and occasionally mutated in various forms of cancer, by binding to the adenosine triphosphate (ATP) binding site of the receptor (Raymond et al., Drugs 60 Suppl 1:15-23, 2000). To investigate erlotinib as a chemoprevention strategy for liver fibrogenesis, male Wistar rats were given a weekly intraperitoneal injection of 50 mg/kg DEN to induce cirrhosis and HCC (Lee et al., Korean J Hepatol 13:70-80, 2007). Erlotinib was administered by intraperitoneal injection daily (5× a week) during weeks 12-18 at a dose of 2 mg/kg, which is equivalent to chemotherapeutic dosing regimens in humans. […] In a separate study, the dose of erlotinib was lowered to 0.5 mg/kg.
Repeated injury to the liver causes damage to hepatocytes and activates resident macrophages called Kupffer cells. Damaged hepatocytes and activated Kupffer cells secrete cytokines and growth factors into the liver milieu, which activate hepatic stellate cells (Friedman, Gastroenterology 134:1655-69, 2008). Normally, hepatic stellate cells are quiescent and store vitamin A and fat. Upon activation, they differentiate into a myofibroblast-phenotype and express α-smooth muscle actin (α-SMA) (Friedman, Gastroenterology 134:1655-69, 2008). Activated hepatic stellate cells deposit fibrous collagen into the space of Disse acutely causing fibrosis and chronically causing cirrhosis. The degree of liver disease (fibrosis versus cirrhosis) is pathologically assessed through trichrome staining of collagen by the method of Ishak (Mod Pathol 7:690-713, 1994).
To investigate lapatinib as a chemoprevention strategy for liver fibrogenesis, male Wistar rats were given a weekly intraperitoneal injection of 50 mg/kg DEN to induce cirrhosis and HCC (Lee et al., Korean J Hepatol 13:70-80, 2007). Lapatinib was administered by intraperitoneal injection daily (5× a week) during weeks 12-18 at a dose of 18 mg/kg.

[3] = 18 mg/kg weeks 12-18 vs vehicle
[4] = 0.5 and 2 mg/kg weeks 12-18 vs vehicle, dose-dependent

Row | Structure (SMILES) | serum level of AST [1, 3] | serum level of Glu [1, 3] | serum level of TBIL [1, 3] | decrease of tumor formation ([2]; 18 mg/kg i.p. daily (5x a week) weeks 12-18, DEN 50 mg/kg weekly for 18 weeks) | gross appearance of livers ([2]; 18 mg/kg weeks 12-18 (FIG. 5C) vs vehicle) | serum level of AST [1, 4] | serum level of Glu [1, 4] | serum level of TBIL [1, 4] | inhibition of tumor formation ([2]; 0.5 mg/kg i.p. daily weeks 12-18, DEN 50 mg/kg weekly for 18 weeks, separate study) [%] | decrease of tumor formation ([2]; 2 mg/kg i.p. daily (5x a week) weeks 12-18, DEN 50 mg/kg weekly for 18 weeks) [%] | gross appearance of livers ([2]; 0.5 and 2 mg/kg weeks 12-18 (FIGS. 1C, 1D) vs vehicle)
1 | CS(=O)(=O)CCNCc1ccc(-c2ccc3ncnc(Nc4ccc(OCc5cccc(F)c5)c(Cl)c4)c3c2)o1 [lapatinib, 4-Quinazolinamine, N-(3-chloro-4-((3-fluorophenyl)methoxy)phenyl)-6-(5-(((2-(methylsulfonyl)ethyl)amino)methyl)-2-furanyl)] | decreased | increased | decreased | greater than 50% | not only exhibited less tumors, but also appeared less cirrhotic |  |  |  |  |  | 
2 | C#Cc1cccc(Nc2ncnc3cc(OCCOC)c(OCCOC)cc23)c1 [erlotinib, 4-Quinazolinamine, N-(3-ethynylphenyl)-6,7-bis(2-methoxyethoxy)] |  |  |  |  |  | decreased | increased | decreased | 49 | 75 | not only exhibited less tumors, but also appeared less cirrhotic
